{
  "source": "paper PMC6642484",
  "about": "“Cell penetrating caspase substrates promote survival of the transplanted cells” (BMC Research Notes, 2019)",
  "type_in_all_cases": "cell-based",
  "key": {"[1]": {"test_system": "N1E cells", "assay": "Staurosporine-induced cell death, LIVE/DEAD staining", "conditions": "overnight exposure to 100 nM Staurosporine, no peptide, average ± SEM", "experimental": "(§1) N1E and R3 ([33-10ras3] (ATCC® CRL-2764™)) cells were grown to about 80% of confluency in 6-well plates covered with D-poly-lysine. Peptides (500 nM or 10 µM) were added to the cells 1 h before treatments. The tested apoptogenic treatments were: Staurosporine (100 nM, 18 h), serum withdraw (20 days for N1E cells and 5 days for R3 cells), heat shock (43 °C, 1 h plus overnight recovery), Camptothecin (10 μM, 18 h), H2O2 (100 μM, 18 h). After the treatment the cells were carefully washed with PBS and stained simultaneously with Calcein A and Ethidium homodimer-1 (LIVE/DEAD® Viability/Cytotoxicity Kit, LifeTechnologies) for 30 min at room temperature. Cells were photographed in an inverted microscope immediately after staining. Percentage of survived cells was calculated from 3 randomly selected fields of view; average cell death rate ± SEM was calculated using GraphPad Prism (version 6.0 h for MacOS, GraphPad Software, La Jolla, USA). Antibodies specific to cleaved Caspase-3 (Asp175) (Rabbit monoclonal 5A1E, CST) were used to visualize Caspase-3 activation in N1E cells by Western blotting."}, "[2]": {"test_system": "R3 cells", "assay": "Staurosporine-induced cell death, LIVE/DEAD staining", "conditions": "Staurosporine 100 nM, no peptide, average ± SEM", "experimental": "as §1"}, "[3]": {"test_system": "N1E and R3 cells", "assay": "Camptothecin-induced apoptosis, LIVE/DEAD staining", "conditions": "Camptothecin 10 μM, 18 h, no peptide", "experimental": "as §1"}, "[4]": {"test_system": "N1E cells", "assay": "MALDI-TOF analysis of lysates from peptide-loaded cells", "conditions": "500 nM peptide, 30 min at 37 °C, Triton X-100 lysate after trichloroacetic acid sedimentation, not quantitative", "experimental": "About 10^6 cells (N1E cells) were exposed to 500 nM of DL18 peptide in normal culture media for 30 min at 37 °C. After exposure the cells were washed twice with PBS, lyzed with 1% Triton X-100 in distilled water and the proteins were sedimented with equal volume of 40% trichloroacetic acid. After centrifugation (9000g, 20 min) 20 μl of supernatant was applied on MALDI plate, mixed with solution of 2,5-dihydroxybenzoic acid and subjected for MALDI-TOF analysis."}, "[5]": {"test_system": "N1E and R3 cells", "assay": "Hydrogen peroxide induced apoptosis, LIVE/DEAD staining", "conditions": "H2O2 100 μM, 18 h, cells untreated with peptides; average ± SEM", "experimental": "as §1"}},
  "note": "Where a SMILES comes first, the peptide text is derived from it.",
  "data": [
    {"smiles": "CN[C@@H]1C[C@H]2O[C@@](C)([C@@H]1OC)n1c3ccccc3c3c4c(c5c6ccccc6n2c5c31)C(=O)NC4", "note": "[Staurosporine]", "values": [
      {"measurement": "cell death", "setting": "[1]", "value": "89.67 ± 5.04", "unit": "%"},
      {"measurement": "dead cells", "setting": "[2]", "value": "15.33 ± 3.76", "unit": "%"}
    ]},
    {"smiles": "CC[C@@]1(O)C(=O)OCc2c1cc1n(c2=O)Cc2cc3ccccc3nc2-1", "note": "[Camptothecin]", "values": [
      {"measurement": "apoptosis induction", "setting": "[3]", "value": "induces apoptosis in limited number of cells"}
    ]},
    {"smiles": "CC[C@@H](C)[C@@H](NC(=O)[C@@H](CCC(=O)O)NC(=O)[C@H](NC(=O)[C@@H](CC(=O)O)NC(=O)[C@@H](CO)NC(=O)CNC(=O)[C@H](N)[C@H](C)O)[C@H](C)O)C(=O)NCC(=O)N[C@@H](CCCNC(=N)N)C(=O)N[C@@H](CCCCN)C(=O)N[C@@H](CCCCN)C(=O)N[C@@H](CCCNC(=N)N)C(=O)N[C@@H](CCCNC(=N)N)C(=O)N[C@@H](CCC(N)=O)C(=O)N[C@@H](CCCNC(=N)N)C(=O)N[C@@H](CCCNC(=N)N)C(=O)N[C@@H](CCCNC(=N)N)C(=O)NCC(=O)O", "note": "[DL18] (HELM PEPTIDE1{[dT].G.[dS].[dD].[dT].[dE].[dI].G.R.K.K.R.R.Q.R.R.R.G}$$$$V2.0)", "values": [
      {"measurement": "dynamics of cellular catabolism of the peptide (prevalence of non-metabolized m/z 2158 peak)", "setting": "[4]", "value": "not considerable"}
    ]},
    {"smiles": "OO", "note": "[H2O2, hydrogen peroxide]", "values": [
      {"measurement": "dead cells", "setting": "[5]", "value": "84.8 ± 4.28", "unit": "%"}
    ]}
  ]
}
